For 26 compounds, Ki and melting point results are on record in patent US8637501B2, “Azinone-substituted azepino[b]indole and pyrido-pyrrolo-azepine MCH-1 antagonists, methods of making, and use thereof” (Albany Molecular Research, Inc., priority 2009, dated 2014).

Structures can show the parent of a compound that is named as a salt.

For one data set, the target named is human MCH-1 receptor (Homo sapiens (Human), UniProt Q99705). Description: Binding Assay for Human Melanin-Concentrating Hormone (MCH-1) Receptor. As to conditions: radioligand displacement, membranes from CHO-K1 cells expressing human MCH-1 receptor; Ki from IC50 by Cheng Prusoff equation; read-out: MCH1 Ki. The procedure: Binding Assay for Human Melanin-Concentrating Hormone (MCH-1) Receptor
human MCH-1 receptor, sequence (Q99705 whole entry): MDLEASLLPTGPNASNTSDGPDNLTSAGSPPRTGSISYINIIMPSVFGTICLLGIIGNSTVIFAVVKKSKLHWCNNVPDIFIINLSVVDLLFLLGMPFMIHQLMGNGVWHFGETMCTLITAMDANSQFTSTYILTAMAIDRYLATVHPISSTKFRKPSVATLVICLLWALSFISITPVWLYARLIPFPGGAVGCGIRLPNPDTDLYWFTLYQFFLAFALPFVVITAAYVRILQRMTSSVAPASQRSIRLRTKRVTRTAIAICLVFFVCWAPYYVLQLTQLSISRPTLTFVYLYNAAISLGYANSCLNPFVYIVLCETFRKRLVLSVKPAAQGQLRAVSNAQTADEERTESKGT
Evaluation of the affinity of compounds for the human MCH-1 receptor was accomplished using 4-(3,4,5-tritritiumbenzyloxy)-1-(1-(2-(pyrrolidin-1-yl)ethyl)-1H-indazol-5-yl)pyridin-2(1H)-one and membranes prepared from stable CHO-K1 cells expressing the human MCH-1 receptor obtained from Euroscreen (Batch 1138). Cell membrane homogenates (8.92 μg protein) were incubated for 60 min at 25° C. with 1.4 nM of the [^3H]-labeled compound in the absence or presence of the test compound in 50 mM Tris-HCl buffer, pH 7.4. Nonspecific binding was determined in the presence of 50 μM 1-(5-(4-cyanophenyl)bicyclo[3.1.0]hexan-2-yl)-3-(4-fluoro-3-(trifluoromethyl)phenyl)-1-(3-(4-methylpiperazin-1-yl)propyl)urea. Following incubation, the samples were filtered rapidly under vacuum through Skatron 11731 filters, pre-soaked in 0.5% polyethylenimine, and washed with ice-cold 50 mM Tris-HCl buffer, pH 7.4, (wash setting 9,9,0) using a Skatron cell harvester. The filters were counted for radioactivity in a liquid scintillation counter (Tri-Carb 2100TR, Packard) using a scintillation cocktail (Ultima Gold MV, Perkin Elmer).
The results are expressed as a percent inhibition of the control radioligand specific binding. The IC50 value (concentration causing a half-maximal inhibition of control specific binding) and Hill coefficient (nH) were determined by non-linear regression analysis of the competition curve using Hill equation curve fitting. The inhibition constant (Ki) was calculated from the Cheng Prusoff equation: (Ki=IC50/(1+(L/KD)), where L=concentration of radioligand in the assay, and KD=affinity of the radioligand for the receptor.
For `CCN1CCc2c(n(C)c3nc(-n4ccc(OCc5ccccc5)cc4=O)ccc23)CC1` [Example 87, 4-(Benzyloxy)-1-(7-ethyl-10-methyl-5,6,7,8,9,10-hexahydropyrido[3′,2′:4,5]pyrrolo[2,3-d]azepin-2-yl)pyridin-2(1H)-one hydrochloride], the Ki worked out at 6.9 nM.

Turning to `CN1CCc2c(n(C)c3nc(-n4ccc(OCc5ccccc5)cc4=O)ccc23)CC1` [Example 88, 4-(Benzyloxy)-1-(7,10-dimethyl-5,6,7,8,9,10-hexahydropyrido[3′,2′:4,5]pyrrolo[2,3-d]azepin-2-yl)pyridin-2(1H)-one hydrochloride], the Ki was determined as 8.7 nM.

In the case of `Cn1c2c(c3ccc(-n4ccc(OCc5ccc(F)cn5)cc4=O)nc31)CNCCC2` [Example 91, 4-((5-Fluoropyridin-2-yl)methoxy)-1-(10-methyl-5,6,7,8,9,10-hexahydropyrido[3′,2′:4,5]pyrrolo[3,2-c]azepin-2-yl)pyridin-2(1H)-one hydrochloride], the inhibitory constant (Ki) was found to be 15 nM. Same read-out and setting: next, `Cn1c2c(c3ccc(-n4ccc(-c5ccc(C(F)(F)F)cn5)cc4=O)nc31)CNCCC2` [Example 92, 1-(10-methyl-5,6,7,8,9,10-hexahydropyrido[3′,2′:4,5]pyrrolo[3,2-c]azepin-2-yl)-4-(5-(trifluoromethyl)pyridine-2-yl)pyridin-2(1H)-one hydrochloride]: 20 nM; `Cn1c2c(c3ccc(-n4ccc(OCc5ccc(Cl)cc5Cl)cc4=O)nc31)CNCCC2` [Example 93, 4-(2,4-Dichlorobenzyloxy)-1-(10-methyl-5,6,7,8,9,10-hexahydropyrido[3′,2′:4,5]pyrrolo[3,2-c]azepin-2-yl)pyridin-2(1H)-one hydrochloride]: 26 nM. On the same count and under the same terms, the value for `Cn1c2c(c3ccc(-n4ccc(OCc5ccc(F)cc5F)cc4=O)nc31)CNCCC2` [Example 94, 4-(2,4-Difluorobenzyloxy)-1-(10-methyl-5,6,7,8,9,10-hexahydropyrido[3′,2′:4,5]pyrrolo[3,2-c]azepin-2-yl)pyridin-2(1H)-one hydrochloride] was 11 nM; that for `Cn1c2c(c3ccc(-n4ccc(-c5ccc(C(F)(F)F)cc5)cc4=O)nc31)CNCCC2` [Example 95, 1-(10-methyl-5,6,7,8,9,10-hexahydropyrido[3′,2′:4,5]pyrrolo[3,2-c]azepin-2-yl)-4-(4-(trifluoromethyl)phenyl)pyridin-2(1H)-one hydrochloride] was 7.8 nM. On the same count and under the same terms, the value for `Cn1c2c(c3ccc(-n4ccc(OCc5ccc(Cl)cc5F)cc4=O)nc31)CNCCC2` [Example 96, 4-(4-Chloro-2-fluorobenzyloxy)-1-(10-methyl-5,6,7,8,9,10-hexahydropyrido[3′,2′:4,5]pyrrolo[3,2-c]azepin-2-yl)pyridin-2(1H)-one hydrochloride] was 9.2 nM.

Turning to `Cn1c2c(c3ccc(N4CCN(CCc5ccc(F)cc5)CC4=O)cc31)CCNCC2` [Example 97, 4-(4-Fluorophenethyl)-1-(6-methyl-1,2,3,4,5,6-hexahydroazepino[4,5-b]indol-8-yl)piperazin-2-one dihydrochloride], the Ki worked out at 13 nM. The same measure, in the same setting: next, `CN1CCc2c(n(C)c3cc(N4CCN(CCc5ccc(F)cc5)CC4=O)ccc23)CC1` [Example 98, 1-(3,6-Dimethyl-1,2,3,4,5,6-hexahydroazepino[4,5-b]indol-8-yl)-4-(4-fluorophenethyl)piperazin-2-one dihydrochloride]: 13 nM; `CCN1CCc2c(n(C)c3cc(N4CCN(CCc5ccc(F)cc5)CC4=O)ccc23)CC1` [Example 99, 1-(3-Ethyl-6-methyl-1,2,3,4,5,6-hexahydroazepino[4,5-b]indol-8-yl)-4-(4-fluorophenethyl)piperazin-2-one dihydrochloride]: 17 nM. For `Cn1c2c(c3ccc(-n4ccc(OCc5ccc(Cl)cc5)cc4=O)cc31)CCNCC2` [Example 100, 4-(4-Chlorobenzyloxy)-1-(6-methyl-1,2,3,4,5,6-hexahydroazepino[4,5-b]indol-8-yl)pyridin-2(1H)-one hydrochloride], the Ki is 10 nM. Same read-out and setting: next, `Cn1c2c(c3ccc(-n4ccc(CCc5ccccc5)nc4=O)cc31)CCNCC2` [Example 101, 1-(6-Methyl-1,2,3,4,5,6-hexahydroazepino[4,5-b]indol-8-yl)-4-phenethylpyrimidin-2(1H)-one hydrochloride]: 9.9 nM; `Cn1c2c(c3ccc(-n4ccc(OCc5ccc(F)cc5)cc4=O)cc31)CNCCC2` [Example 103, 4-(4-Fluorobenzyloxy)-1-(6-methyl-1,2,3,4,5,6-hexahydroazepino[4,3-b]indol-8-yl)pyridin-2(1H)-one hydrochloride]: 6 nM.

Take `Cn1c2c(c3ccc(-n4ccc(OCc5ccc(F)cn5)cc4=O)cc31)C(=O)NCCC2` [Example 104, 8-(4-((5-Fluoropyridin-2-yl)methoxy)-2-oxopyridin-1(2H)-yl)-6-methyl-2,3,4,5-tetrahydroazepino[4,3-b]indol-1(6H)-one]: the Ki amounted to 149 nM. The same measure, in the same setting: next, `Cn1c2c(c3ccc(-n4ccc(OCc5ccc(Cl)cc5)cc4=O)cc31)CNCCC2` [Example 105, 4-(4-Chlorobenzyloxy)-1-(6-methyl-1,2,3,4,5,6-hexahydroazepino[4,3-b]indol-8-yl)pyridin-2(1H)-one hydrochloride]: 7.6 nM; `Cn1c2c(c3ccc(-n4ccc(CCc5ccccc5)nc4=O)cc31)CNCCC2` [Example 107, 1-(6-Methyl-1,2,3,4,5,6-hexahydroazepino[4,3-b]indol-8-yl)-4-phenethylpyrimidin-2(1H)-one hydrochloride]: 9.7 nM; `Cn1c2c(c3ccc(-n4ccc(-c5ccc(C(F)(F)F)nc5)nc4=O)cc31)CNCCC2` [Example 108, 1-(6-Methyl-1,2,3,4,5,6-hexahydroazepino[4,3-b]indol-8-yl)-4-(6-(trifluoromethyl)pyridin-3-yl)pyrimidin-2(1H)-one hydrochloride]: 60 nM. The same measure, in the same setting: next, `Cn1c2c(c3ccc(-n4ccc(OCc5ccc(Cl)cc5)cc4=O)nc31)CCNCC2` [Example 109, 4-(4-Chlorobenzyloxy)-1-(10-methyl-5,6,7,8,9,10-hexahydropyrido[3′,2′:4,5]pyrrolo[2,3-d]azepin-2-yl)pyridin-2(1H)-one hydrochloride]: 9.6 nM. For the compound `Cn1c2c(c3ccc(-n4ccc(OCc5ccc(F)cc5)cc4=O)nc31)CCNCC2` [Example 110, 4-(4-Fluorobenzyloxy)-1-(10-methyl-5,6,7,8,9,10-hexahydropyrido[3′,2′:4,5]pyrrolo[2,3-d]azepin-2-yl)pyridin-2(1H)-one hydrochloride], the Ki is 12 nM. The same measure, in the same setting: next, `Cn1c2c(c3ccc(-n4ccc(OCc5ncc(F)cc5F)cc4=O)nc31)CCNCC2` [Example 111, 4-((3,5-Difluoropyridin-2-yl)methoxy)-1-(10-methyl-5,6,7,8,9,10-hexahydropyrido[3′,2′:4,5]pyrrolo[2,3-d]azepin-2-yl)pyridin-2(1H)-one hydrochloride]: 71 nM. The same measure, in the same setting: next, `Cn1c2c(c3ccc(-n4ccc(OCc5ccc(F)cc5)cc4=O)nc31)CNCCC2` [Example 112, 4-(4-Fluorobenzyloxy)-1-(10-methyl-5,6,7,8,9,10-hexahydropyrido[3′,2′:4,5]pyrrolo[3,2-c]azepin-2-yl)pyridin-2(1H)-one hydrochloride]: 8.9 nM.

Consider `Cn1c2c(c3ccc(-n4ccc(OCc5ccc(Cl)cc5)cc4=O)nc31)CNCCC2` [Example 113, 4-(4-Chlorobenzyloxy)-1-(10-methyl-5,6,7,8,9,10-hexahydropyrido[3′,2′:4,5]pyrrolo[3,2-c]azepin-2-yl)pyridin-2(1H)-one hydrochloride], for which the Ki came to 5.9 nM. For the compound `Cn1c2c(c3ccc(-n4ccc(OCc5ncc(F)cc5F)cc4=O)nc31)CNCCC2` [Example 114, 4-((3,5-Difluoropyridin-2-yl)methoxy)-1-(10-methyl-5,6,7,8,9,10-hexahydropyrido[3′,2′:4,5]pyrrolo[3,2-c]azepin-2-yl)pyridin-2(1H)-one hydrochloride], the Ki was determined as 44 nM.

System in another data set: not given
Assay: not given
Conditions: not given
Take `Cn1c2c(c3ccc(-n4ccc(-c5ccc(C(F)(F)F)cn5)cc4=O)cc31)CCNCC2` (as salt: hydrochloride) [Example 3, 1-(6-Methyl-1,2,3,4,5,6-hexahydroazepino[4,5-b]indol-8-yl)-4-(5-(trifluoromethyl)pyridin-2-yl)pyridin-2(1H)-one dihydrochloride]: the melting point was in the range of 310 to 312 °C. On the same count and under the same terms, the value for `Cn1c2c(c3ccc(-n4ccc(OCc5ccc(C(F)(F)F)nc5)cc4=O)cc31)CCNCC2` (as salt: hydrochloride) [Example 5, 1-(6-Methyl-1,2,3,4,5,6-hexahydroazepino[4,5-b]indol-8-yl)-4-((6-(trifluoromethyl)pyridin-3-yl)methoxy)pyridin-2(1H)-one dihydrochloride] was 296 to 300 °C.
